According to patent US20240124442A1, “TRICYCLIC-AMIDO-BICYCLIC PRMT5 INHIBITORS” (AMGEN INC., priority 2021, published 2024):
Read-outs that look alike come from different tables or passages of the source.

Assays:
HCT116 MTAP null cells = assay: HCT116 MTAP null cell line proliferation / cell viability (CellTiter-Glo, 6 days); type: cell-based; conditions: for IC50: HCT116 MTAP null cells, 6 days treatment, CellTiter-Glo cell viability, read-out: HCT-116 MTAP null IC50; for relative potency of the enantiomers (measured by IC50 in HCT116 MTAP null cell viability assay): comparison of the two enantiomers separated by SFC, used to assign (S)/(R)
Procedure: (§1) HCT116 Proliferation Activity
(§2) To assess selective anti-proliferative activity of compounds of the invention in cells that have loss expression of MTAP, an HCT-116 isogenic cell line pair was utilized where one cell line was engineered to genetically knockout both MTAP alleles. Cell viability was then assessed in both the parent HCT-116 cell line and the MTAP null cell line after 6 days of treatment with compounds of the present invention. Selective anti-proliferative activity in the MTAP null cell line indicates MTA-cooperative inhibition of PRMT5 and ability to inhibit growth of cancer cells that have loss of MTAP.
(§3) HCT116 MTAP null and WT cells were seeded in 96-well tissue culture plates in RPMI 1640 media+10% fetal bovine serum. Plates were incubated overnight at 37° C. and 5% CO2. Cells were then treated with an 8- or 9-point serial dilution of compound, using a top concentration of 1, or 10 μM, 1:3 serial dilution steps and, a DMSO-only control. Cells were incubated in the presence of drug for 6 days. Effects on cell viability were measured with the CellTiter-Glo® Luminescent Cell Viability Assay (Promega) per manufacturer's recommendation. Assay plates were read on an EnVision™ Multilabel Reader using the Ultra-Sensitive luminescence module. IC50 values were calculated with GraphPad Prism v 5.01 using symmetrical sigmoidal dose-response least squares fit with Hill slope fixed to −1 and top constrain to 100% or GeneData Screener using a 4-parameter logistic model to fit dose response curves.
(§4) Alternatively, compounds could be assayed with a 384 well plate format:
(§5) Compounds were pre-spotted into 384 well plates with a 22-point serial dilution of compound, using a top concentration of 10 or 50 μM, 1:2 serial dilution steps and, a DMSO-only control. HCT116 MTAP null and WT cells were then seeded as above and after 6 days effects on cell viability were measured with the CellTiter-Glo® Luminescent Cell Viability Assay (Promega). Assay plates were read as above and IC50 values were calculated with GeneData Screener using a 4-parameter logistic model to fit dose response curves. The reported IC50 represents the value where the curve transits 50% of control.

HCT116 WT cells = assay: HCT116 WT (parent) cell line proliferation / cell viability (CellTiter-Glo, 6 days); type: cell-based; conditions: 6 days treatment
Procedure: as §1, §2, §3, §4, §5

Row | IC50 (HCT116 MTAP null cells; 144 h) | IC50 (HCT116 WT cells; Homo sapiens, HCT-116, 144 h) | relative potency of the enantiomers (measured by IC50 in HCT116 MTAP null cell viability assay) (HCT116 MTAP null cells) | IC50 (HCT116 MTAP null cells) | IC50 (HCT116 WT cells; read-out: HCT-116 WT IC50) | Compound
1 | 1420 nM | 32200 nM |  |  |  | CN(C(=O)c1cc2c3c(c(N)nc2cc1F)COC3)C1COc2cc(Br)cnc21 (racemic) [Example 465, 4-amino-N-((3R)-6-bromo-2,3-dihydrofuro[3,2-b]pyridin-3-yl)-7-fluoro-N-methyl-1,3-dihydrofuro[3,4-c]quinoline-8-carboxamide and 4-amino-N-((3S)-6-bromo-2,3-dihydrofuro[3,2-b]pyridin-3-yl)-7-fluoro-N-methyl-1,3-dihydrofuro[3,4-c]quinoline-8-carboxamide]
2 | 22 nM | 1140 nM |  |  |  | CN(C(=O)c1cc2c3c(c(N)nc2cc1Cl)COC3)C1COc2cc(C(F)(F)F)cc(F)c21 (racemic) [Example 472, 4-amino-7-chloro-N-((3R)-4-fluoro-6-(trifluoromethyl)-2,3-dihydro-1-benzofuran-3-yl)-N-methyl-1,3-dihydrofuro[3,4-c]quinoline-8-carboxamide and 4-amino-7-chloro-N-((3S)-4-fluoro-6-(trifluoromethyl)-2,3-dihydro-1-benzofuran-3-yl)-N-methyl-1,3-dihydrofuro[3,4-c]quinoline-8-carboxamide]
3 | 221 nM | 5590 nM |  |  |  | CN(C(=O)c1cc2c(cc1F)nc(N)c1c2cnn1C)C1CSc2cc(Br)ccc21 (racemic) [Example 484, 4-amino-N-((3R)-6-bromo-2,3-dihydro-1-benzothiophen-3-yl)-7-fluoro-N,3-dimethyl-3H-pyrazolo[3,4-c]quinoline-8-carboxamide and 4-amino-N-((3S)-6-bromo-2,3-dihydro-1-benzothiophen-3-yl)-7-fluoro-N,3-dimethyl-3H-pyrazolo[3,4-c]quinoline-8-carboxamide]
4 | 127 nM | 1360 nM |  |  |  | CN(C(=O)c1ccc2nc(N)c3c(c2c1)COC3)C1COc2cc(C3=CCN(C(=O)OC(C)(C)C)CC3)ccc21 (racemic) [Example 614, 2-methyl-2-propanyl 4-((3R)-3-(((4-amino-1,3-dihydrofuro[3,4-c]quinolin-8-yl)carbonyl)(methyl)amino)-2,3-dihydro-1-benzofuran-6-yl)-3,6-dihydro-1(2H)-pyridinecarboxylate and 2-methyl-2-propanyl 4-((3S)-3-(((4-amino-1,3-dihydrofuro[3,4-c]quinolin-8-yl)carbonyl)(methyl)amino)-2,3-dihydro-1-benzofuran-6-yl)-3,6-dihydro-1(2H)-pyridinecarboxylate]
5 | 297 nM | 21000 nM |  |  |  | Cc1ccc2c(n1)CCC2N(C)C(=O)c1ccc2nc(N)c3cnn(C)c3c2c1 (racemic) [Example 682, 4-amino-N,1-dimethyl-N-((5R)-2-methyl-6,7-dihydro-5H-cyclopenta[b]pyridin-5-yl)-1H-pyrazolo[4,3-c]quinoline-8-carboxamide and 4-amino-N,1-dimethyl-N-((5S)-2-methyl-6,7-dihydro-5H-cyclopenta[b]pyridin-5-yl)-1H-pyrazolo[4,3-c]quinoline-8-carboxamide]
6 | 1360 nM | 10000 nM | less potent |  |  | CN(C(=O)c1ccc2nc(N)c3c(c2c1)COC3)[C@H]1COc2cc(C(F)(F)F)ccc21 (single isomer, unassigned) [Example 318]
7 |  |  |  | 48 nM | 2210 nM | CN(C(=O)c1ccc2nc(N)c3c(c2c1)COC3)[C@@H]1COc2cc([N+](=O)[O-])ccc21 (single isomer, unassigned) [Example 319]
8 |  |  |  | 3660 nM | 36400 nM | CN(C(=O)c1ccc2nc(N)c3c(c2c1)COC3)[C@H]1COc2cc([N+](=O)[O-])ccc21 (single isomer, unassigned) [Example 320]

Further lines, the compound ahead of its results:

Row | Compound | IC50 (HCT116 MTAP null cells; 144 h) | IC50 (HCT116 WT cells; Homo sapiens, HCT-116, 144 h) | relative potency of the enantiomers (measured by IC50 in HCT116 MTAP null cell viability assay) (HCT116 MTAP null cells) | IC50 (HCT116 MTAP null cells) | IC50 (HCT116 WT cells; read-out: HCT-116 WT IC50)
9 | CC(C)S(=O)(=O)c1ccc2c(c1)OCC2N(C)C(=O)c1cc2c3c(c(N)nc2cc1F)COC3 (racemic) [Example 464, 4-amino-7-fluoro-N-methyl-N-((3R)-6-(2-propanylsulfonyl)-2,3-dihydro-1-benzofuran-3-yl)-1,3-dihydrofuro[3,4-c]quinoline-8-carboxamide and 4-amino-7-fluoro-N-methyl-N-((3S)-6-(2-propanylsulfonyl)-2,3-dihydro-1-benzofuran-3-yl)-1,3-dihydrofuro[3,4-c]quinoline-8-carboxamide] | 22 nM | 1880 nM |  |  | 
10 | CN(C(=O)c1cc2c(cc1F)nc(N)c1cnn(C)c12)C1CSc2cc(Br)ccc21 (racemic) [Example 479, 4-amino-N-((3R)-6-bromo-2,3-dihydro-1-benzothiophen-3-yl)-7-fluoro-N,1-dimethyl-1H-pyrazolo[4,3-c]quinoline-8-carboxamide and 4-amino-N-((3S)-6-bromo-2,3-dihydro-1-benzothiophen-3-yl)-7-fluoro-N,1-dimethyl-1H-pyrazolo[4,3-c]quinoline-8-carboxamide] | 23 nM | 710 nM |  |  | 
11 | CN(C(=O)c1cc2c(cc1F)nc(N)c1c2cnn1C)C1COc2cc(C#N)ccc21 (racemic) [Example 482, 4-amino-N-((3R)-6-cyano-2,3-dihydro-1-benzofuran-3-yl)-7-fluoro-N,3-dimethyl-3H-pyrazolo[3,4-c]quinoline-8-carboxamide and 4-amino-N-((3S)-6-cyano-2,3-dihydro-1-benzofuran-3-yl)-7-fluoro-N,3-dimethyl-3H-pyrazolo[3,4-c]quinoline-8-carboxamide] | 166 nM | 17500 nM |  |  | 
12 | CN(C(=O)c1cc2c(cc1Cl)nc(N)c1c2cnn1C)C1CCc2nc(C(F)(F)F)ccc21 (racemic) [Example 485, 4-amino-7-chloro-N,3-dimethyl-N-((5R)-2-(trifluoromethyl)-6,7-dihydro-5H-cyclopenta[b]pyridin-5-yl)-3H-pyrazolo[3,4-c]quinoline-8-carboxamide and 4-amino-7-chloro-N,3-dimethyl-N-((5S)-2-(trifluoromethyl)-6,7-dihydro-5H-cyclopenta[b]pyridin-5-yl)-3H-pyrazolo[3,4-c]quinoline-8-carboxamide] | 125 nM | 11700 nM |  |  | 
13 | CN(C(=O)c1ccc2nc(N)c3cnn(C)c3c2c1)C1CCc2ccccc21 (racemic) [Example 681, 4-amino-N-((1R)-2,3-dihydro-1H-inden-1-yl)-N,1-dimethyl-1H-pyrazolo[4,3-c]quinoline-8-carboxamide and 4-amino-N-((1S)-2,3-dihydro-1H-inden-1-yl)-N,1-dimethyl-1H-pyrazolo[4,3-c]quinoline-8-carboxamide] | 530 nM | 9330 nM |  |  | 
14 | CN(C(=O)c1ccc2nc(N)c3c(c2c1)COC3)[C@@H]1COc2cc(C(F)(F)F)ccc21 (single isomer, unassigned) [Example 317] | 24 nM | 1160 nM | more potent |  | 
15 | [2H]C([2H])([2H])N(C(=O)c1ccc2nc(N)c3c(c2c1)COC3)[C@H]1COc2cc(C(F)(F)F)ccc21 (single isomer, unassigned) [Example 321] | 2660 nM | 20100 nM |  |  | 
16 | [2H]C([2H])([2H])N(C(=O)c1ccc2nc(N)c3c(c2c1)COC3)[C@@H]1COc2cc(C(F)(F)F)ccc21 (single isomer, unassigned) [Example 322] | 41 nM | 1390 nM |  |  | 
17 | CN(C(=O)c1ccc2nc(N)c3c(c2c1)COC3)[C@@H]1COc2cc(S(C)(=O)=O)ccc21 (single isomer, unassigned) [Example 323] | 76 nM | 3450 nM |  |  | 
